Reference: ChEMBL document CHEMBL4651402, “Screening of ~5500 FDA-approved drugs and clinical candidates for anti-SARS-CoV-2 activity” (2021)

System: SARS-CoV-2
Experiment: microbe, parasite or virus in culture
Details: Severe acute respiratory syndrome coronavirus 2, Vero C1008, 48 h

Which IC50 does the source give for `Cc1nc2c(C)cccn2c(=O)c1CCN1CCC(c2noc3cc(F)ccc23)CC1` [OCAPERIDONE] here?
Its IC50 is > 20 µM.

And the IC50 (read-out: pIC50 (converted))?
Its IC50 is > 20 µM.

`CCCCCCCC(=O)O` [OCTANOIC ACID] was tested. Which IC50 did it give?
The IC50 was > 20 µM.

And the IC50 (read-out: pIC50 (converted))?
Its IC50 is > 20 µM.

How did the IC50 turn out when `CCOc1cc(-c2nccc3cc(OC)c(OC)cc23)cc(OCC)c1OCC` [OCTAVERINE] was run?
The IC50 was > 20 µM.

What about the IC50 (read-out: pIC50 (converted)) of the same molecule?
The IC50 was > 20 µM.

Which results are given for `CCCCCCCCN=c1ccn(CCCCCCCCCCn2ccc(=NCCCCCCCC)cc2)cc1` [OCTENIDINE]?
IC50: > 20 µM; IC50 (read-out: pIC50 (converted)): > 20 µM

Which results are given for `NCC(O)c1ccc(O)cc1` (stereo not drawn) [OCTOPAMINE]?
IC50: > 20 µM; IC50 (read-out: pIC50 (converted)): > 20 µM

Which results are given for `CC1COc2c(N3CCN(C)CC3)c(F)cc3c(=O)c(C(=O)O)cn1c23` (stereo not drawn) [OFLOXACIN]?
IC50: > 20 µM; IC50 (read-out: pIC50 (converted)): > 20 µM

Which IC50 does the source give for `Cc1cc2c(s1)Nc1ccccc1N=C2N1CCN(C)CC1` [OLANZAPINE] here?
Its IC50 is > 20 µM.

And the IC50 (read-out: pIC50 (converted))?
Its IC50 is > 20 µM.

Which IC50 does the source give for `O=C(c1cc(Cc2n[nH]c(=O)c3ccccc23)ccc1F)N1CCN(C(=O)C2CC2)CC1` [OLAPARIB] here?
Its IC50 is > 20 µM.

And the IC50 (read-out: pIC50 (converted))?
Its IC50 is > 20 µM.

With `NCCCC[C@H](NC(=O)[C@@H](Cc1cc(Br)c(O)c(Br)c1)NC(=O)N1CCC(N2Cc3ccccc3NC2=O)CC1)C(=O)N1CCN(c2ccncc2)CC1` [OLCEGEPANT] as the molecule, how does the IC50 read?
The IC50 was > 20 µM.

And the IC50 (read-out: pIC50 (converted))?
The IC50 was > 20 µM.

How did the IC50 turn out when `CO[C@H]1C[C@H](O[C@H]2[C@H](C)[C@@H](O[C@@H]3O[C@H](C)C[C@H](N(C)C)[C@H]3O)[C@@H](C)C[C@@]3(CO3)C(=O)[C@H](C)[C@@H](O)[C@@H](C)[C@@H](C)OC(=O)[C@@H]2C)O[C@@H](C)[C@@H]1O` [OLEANDOMYCIN] was run?
The IC50 was > 20 µM.

And the IC50 (read-out: pIC50 (converted))?
The IC50 was > 20 µM.

Which IC50 does the source give for `CC1(C)CC[C@]2(C(=O)O)CC[C@]3(C)C(=CC[C@@H]4[C@@]5(C)CC[C@H](O)C(C)(C)[C@@H]5CC[C@]43C)[C@@H]2C1` [OLEANOLIC_ACID] here?
The IC50 was > 20 µM.

And the IC50 (read-out: pIC50 (converted))?
The IC50 was > 20 µM.

For `CCCCCCCC/C=C\CCCCCCCC(=O)O` [OLEIC ACID], which IC50 is on record?
Its IC50 is > 20 µM.

And the IC50 (read-out: pIC50 (converted))?
Its IC50 is > 20 µM.

How did the IC50 turn out when `C/C=C1/[C@H](O[C@@H]2O[C@H](CO)[C@@H](O)[C@H](O)[C@H]2O)OC=C(C(=O)OC)[C@H]1CC(=O)OCCc1ccc(O)c(O)c1` [OLEUROPEIN] was run?
Its IC50 is > 20 µM.

What about the IC50 (read-out: pIC50 (converted)) of the same molecule?
The IC50 was > 20 µM.

With `OC[C@H]1O[C@@H](S[C@@H]2O[C@H](CO)[C@H](O)[C@H](n3cc(-c4cccc(F)c4)nn3)[C@H]2O)[C@H](O)[C@@H](n2cc(-c3cccc(F)c3)nn2)[C@H]1O` [OLITIGALTIN] as the molecule, how does the IC50 read?
The IC50 was > 20 µM.

What about the IC50 (read-out: pIC50 (converted)) of the same molecule?
Its IC50 is > 20 µM.

With `CCCc1nc(C(C)(C)O)c(C(=O)O)n1Cc1ccc(-c2ccccc2-c2nnn[nH]2)cc1` [OLMESARTAN] as the molecule, how does the IC50 read?
Its IC50 is > 20 µM.

What about the IC50 (read-out: pIC50 (converted)) of the same molecule?
The IC50 was > 20 µM.

What does the source list for `CN(C)CC/C=C1/c2ccccc2COc2ccc(CC(=O)O)cc21` [OLOPATADINE]?
IC50: > 20 µM; IC50 (read-out: pIC50 (converted)): > 20 µM

How did the IC50 turn out when `CC(C)(C)[C@@H](CO)NC(=O)c1nn(-c2c[n+]([O-])ccn2)c2c1C[C@@H]1C[C@H]21` [OLORINAB] was run?
The IC50 was > 20 µM.

What about the IC50 (read-out: pIC50 (converted)) of the same molecule?
Its IC50 is > 20 µM.

Which IC50 does the source give for `O=C(O)c1cc(/N=N/c2ccc(O)c(C(=O)O)c2)ccc1O` [OLSALAZINE] here?
Its IC50 is > 20 µM.

And the IC50 (read-out: pIC50 (converted))?
The IC50 was > 20 µM.

Which IC50 does the source give for `Cc1c(-c2cnccn2)ssc1=S` [OLTIPRAZ] here?
Its IC50 is > 20 µM.

And the IC50 (read-out: pIC50 (converted))?
Its IC50 is > 20 µM.

With `COC(=O)C[C@](O)(CCCC(C)(C)O)C(=O)O[C@@H]1C(OC)=C[C@]23CCCN2CCc2cc4c(cc2[C@H]13)OCO4` [OMACETAXINE MEPESUCCINATE] as the molecule, how does the IC50 read?
The IC50 was > 20 µM.

And the IC50 (read-out: pIC50 (converted))?
The IC50 was > 20 µM.

How did the IC50 turn out when `O=C(N[C@H]1CCS[C@H]2CCC[C@@H](C(=O)O)N2C1=O)[C@@H](S)Cc1ccccc1` [OMAPATRILAT] was run?
Its IC50 is > 20 µM.

And the IC50 (read-out: pIC50 (converted))?
Its IC50 is > 20 µM.

For `COC(=O)N1CCN(Cc2cccc(NC(=O)Nc3ccc(C)nc3)c2F)CC1` [OMECAMTIV MECARBIL], which IC50 is on record?
Its IC50 is > 20 µM.

What about the IC50 (read-out: pIC50 (converted)) of the same molecule?
The IC50 was > 20 µM.

What does the source list for `COc1ccc2[nH]c([S+]([O-])Cc3ncc(C)c(OC)c3C)nc2c1` (stereo not drawn) [OMEPRAZOLE]?
IC50: > 20 µM; IC50 (read-out: pIC50 (converted)): > 20 µM

What does the source list for `CC(C)c1cc(C(=O)N2Cc3ccc(CN4CCN(C)CC4)cc3C2)c(O)cc1O` [ONALESPIB]?
IC50: > 20 µM; IC50 (read-out: pIC50 (converted)): > 20 µM

Which IC50 does the source give for `Cc1nccn1CC1CCc2c(c3ccccc3n2C)C1=O` (stereo not drawn) [ONDANSETRON] here?
Its IC50 is > 20 µM.

And the IC50 (read-out: pIC50 (converted))?
Its IC50 is > 20 µM.

With `CN1CCN(c2ccc(OC(F)(F)F)c(Nc3ncc4c(n3)-c3c(c(C(N)=O)nn3CCO)CC4)c2)CC1` [ONVANSERTIB] as the molecule, how does the IC50 read?
The IC50 was > 20 µM.

And the IC50 (read-out: pIC50 (converted))?
The IC50 was > 20 µM.

What does the source list for `OCCN1CCN(CCCN2c3ccccc3C=Cc3ccccc32)CC1` [OPIPRAMOL]?
IC50: > 20 µM; IC50 (read-out: pIC50 (converted)): > 20 µM

Which IC50 does the source give for `Clc1ccc(C(Cn2ccnc2)OCc2c(Cl)cccc2Cl)cc1` (stereo not drawn) [ORCONAZOLE] here?
The IC50 was > 20 µM.

And the IC50 (read-out: pIC50 (converted))?
The IC50 was > 20 µM.

For `COc1ccc2c(c1)CC[C@H](CN(C)CC(=O)O)[C@@H]2c1ccccc1` [ORG-25935], which IC50 is on record?
The IC50 was > 20 µM.

And the IC50 (read-out: pIC50 (converted))?
Its IC50 is > 20 µM.

Which results are given for `C=C1C(=O)[C@]23[C@H](O)[C@H]1CC[C@H]2[C@@]12CO[C@]3(O)[C@@H](O)[C@@H]1C(C)(C)CC[C@@H]2O` [ORIDONIN]?
IC50: > 20 µM; IC50 (read-out: pIC50 (converted)): > 20 µM

`CN[C@H](CC(C)C)C(=O)N[C@H]1C(=O)N[C@@H](CC(N)=O)C(=O)N[C@H]2C(=O)N[C@H]3C(=O)N[C@H](C(=O)N[C@H](C(=O)O)c4cc(O)cc(O)c4-c4cc3ccc4O)[C@H](O[C@H]3C[C@](C)(N)[C@@H](O)[C@H](C)O3)c3ccc(c(Cl)c3)Oc3cc2cc(c3O[C@@H]2O[C@H](CO)[C@@H](O)[C@H](O)[C@H]2O[C@H]2C[C@](C)(NCc3ccc(-c4ccc(Cl)cc4)cc3)[C@@H](O)[C@H](C)O2)Oc2ccc(cc2Cl)[C@H]1O` [ORITAVANCIN] was tested. Which IC50 did it give?
The IC50 was > 20 µM.

What about the IC50 (read-out: pIC50 (converted)) of the same molecule?
The IC50 was > 20 µM.

What does the source list for `CCCCCCCCCCC[C@@H](C[C@@H]1OC(=O)[C@H]1CCCCCC)OC(=O)[C@H](CC(C)C)NC=O` [ORLISTAT]?
IC50: > 20 µM; IC50 (read-out: pIC50 (converted)): > 20 µM

Which results are given for `Cc1ncc([N+](=O)[O-])n1CC(O)CCl` (stereo not drawn) [ORNIDAZOLE]?
IC50: > 20 µM; IC50 (read-out: pIC50 (converted)): > 20 µM

With `NCCCC(N)C(=O)O` (stereo not drawn) [ORNITHINE aKETOGLUTARATE] as the molecule, how does the IC50 read?
Its IC50 is > 10 µM.

And the IC50 (read-out: pIC50 (converted))?
Its IC50 is > 10 µM.

`O=C(O)c1cc(=O)[nH]c(=O)[nH]1` [OROTIC ACID] was tested. Which IC50 did it give?
Its IC50 is > 20 µM.

What about the IC50 (read-out: pIC50 (converted)) of the same molecule?
Its IC50 is > 20 µM.

With `Cc1ccccc1C(OCCN(C)C)c1ccccc1` (stereo not drawn) [ORPHENADRINE] as the molecule, how does the IC50 read?
The IC50 was > 20 µM.

What about the IC50 (read-out: pIC50 (converted)) of the same molecule?
Its IC50 is > 20 µM.

`CCOC(=O)c1c(C)cc(O)cc1O` [ORSELLINIC ACID, ETHYL ESTER] was tested. Which IC50 did it give?
The IC50 was > 20 µM.

What about the IC50 (read-out: pIC50 (converted)) of the same molecule?
The IC50 was > 20 µM.

What does the source list for `CC(C)=CCc1c2c(c3occ(-c4ccc(O)cc4)c(=O)c3c1O)C=CC(C)(C)O2` [OSAJIN]?
IC50: > 20 µM; IC50 (read-out: pIC50 (converted)): > 20 µM

With `O=C(Nc1ccc(O)cc1)c1ccccc1O` [OSALMID] as the molecule, how does the IC50 read?
The IC50 was > 20 µM.

And the IC50 (read-out: pIC50 (converted))?
The IC50 was > 20 µM.

Which results are given for `CC(=O)N(C)C1(c2ccccc2)CCN(CCC[C@]2(c3ccc(Cl)c(Cl)c3)CCCN(C(=O)c3ccccc3)C2)CC1` [OSANETANT]?
IC50: > 20 µM; IC50 (read-out: pIC50 (converted)): > 20 µM

Which results are given for `CCOC(=O)C1=C[C@@H](OC(CC)CC)[C@H](NC(C)=O)[C@@H](N)C1` [OSELTAMIVIR]?
IC50: > 20 µM; IC50 (read-out: pIC50 (converted)): > 20 µM

Which IC50 does the source give for `COc1cccc2cc(-c3nc([C@H]4CC[C@H](C(=O)O)CC4)n4ncnc(N)c34)[nH]c12` [OSI-027] here?
The IC50 was > 20 µM.

What about the IC50 (read-out: pIC50 (converted)) of the same molecule?
Its IC50 is > 20 µM.

Which results are given for `O=C(Nc1ccc(OC(F)(F)F)cc1)c1sccc1NCc1ccnc2ccccc12` [OSI-930]?
IC50: > 20 µM; IC50 (read-out: pIC50 (converted)): > 20 µM

What does the source list for `CCN(CC)CC1CCCCN1CC(=O)N1c2ccccc2C(=O)Nc2cccnc21` (stereo not drawn) [OTENZEPAD]?
IC50: > 20 µM; IC50 (read-out: pIC50 (converted)): > 20 µM
